Experiment [1] deals with kanamycin-resistant microbial strains including Pseudomonas aeruginosa. The following applies: cited from earlier work.
For experiment [2], the system named is Sta. epidermidis ATCC 14990. Description: Antibacterial activity (MIC), serial dilution method. Type of experiment: cell-based. The following applies: Staphylococcus epidermidis, ATCC14990; nutrient agar, 37° C., 20 hours.
A further experiment concerns Sta. epidermidis 109. The experiment is described as above. The experiment is classed as cell-based. The following applies: Staphylococcus epidermidis, nutrient agar, 37° C., 20 hours.
A further experiment deals with E. coli A-0001. The experiment is described as above. The experiment is classed as cell-based. The following applies: Escherichia coli, A0001; nutrient agar, 37° C., 20 hours.
The test system of a further experiment is Pro. rettgelli J-0026. The experiment is described as above. Type of experiment: cell-based. To be noted: 20 h.
For another experiment, the system named is E. coli No. 29. The description is as above. The following applies: Escherichia coli, nutrient agar, 37° C., 20 hours. Type of experiment: cell-based.
A further experiment deals with Sta. aureus No. 26. The description is as above. The experiment is classed as cell-based. The following applies: Staphylococcus aureus, nutrient agar, 37° C., 20 hours.
Another experiment relates to Sal. typhi 0-901-W. The description is as above. Type of experiment: cell-based. The following applies: Salmonella enterica, 20 h.
Another experiment deals with Ps. aeruginosa M-0148. Described as above. Type of experiment: cell-based. The following applies: Pseudomonas aeruginosa, M0148, 20 h.
In a further experiment the test system is Ps. aeruginosa M-0032. Described as above. The experiment is classed as cell-based. To be noted: Pseudomonas aeruginosa, M0032, 20 h.
The test system of a further experiment is Sal. species D-0006. The description is as above. Type of experiment: cell-based. To be noted: nutrient agar, 37° C., 20 hours. The method, then:
(§1) Antimicrobial spectra of 1-N-(L-isoseryl)- and 1-N-(L-4-amino-2-hydroxybutyryl)-3',4'-dideoxy-3',4'-didehydrokanamycin B (1-AHP-eno-DKB and 1-AHB-eno-DKB) are shown in the following table together with that of 1-N-(L-4-amino-2-hydroxybutyryl)-3',4'-dideoxykanamycin B (1-AHB-DKB).
(§2) The minimum inhibitory concentrations (mcg/ml) of the compounds tested against various microorganisms were determined according to a serial dilution method using nutrient agar medium at 37° C., the estimation being effected after 20 hours-incubation.

The next experiment concerns E. coli W 677(A-20684). The experiment is described as above. The experiment is classed as cell-based. The following applies: Escherichia coli; nutrient agar, 37° C., 20 hours. Here is the method: as §1, §2
Another experiment has as its system Sal. species D-0029. Described as above. The experiment is classed as cell-based. The following applies: nutrient agar, 37° C., 20 hours. The method, then:
as §1, §2

The next experiment relates to Sal. species D-0001. The experiment is described as above. Type of experiment: cell-based. The following applies: nutrient agar, 37° C., 20 hours. Here is the method:
as §1, §2

The next experiment relates to Kleb. pneumoniae. Described as above. The following applies: Klebsiella pneumoniae; nutrient agar, 37° C., 20 hours; read-out: MIC. The experiment is classed as cell-based.
Experiment [3] concerns Shigella dysenteriae Shigae. Nature of the experiment: microbe, parasite or virus in culture. The following applies: 20 h. The experiment is classed as cell-based.
For the next experiment, the system named is Sta. aureus ApO-1. Description: Antibacterial activity (MIC), serial dilution method. Type of experiment: cell-based. To be noted: Staphylococcus aureus, APO1; nutrient agar, 37° C., 20 hours.
For the next experiment, the system named is Serra. marcescens No. 2. The description is as above. The experiment is classed as cell-based. To be noted: Serratia marcescens, nutrient agar, 37° C., 20 hours.
In experiment [4] the test system is Kleb. pneumoniae 22# 3038 (A-20680). The description is as above. The experiment is classed as cell-based. To be noted: Klebsiella pneumoniae; nutrient agar, 37° C., 20 hours; read-out: MIC.
Experiment [5] deals with E. coli (M) Cast. & Chalm.NIHJ JC-2. Described as above. Type of experiment: cell-based. To be noted: Escherichia coli, NIHJJC2, 20 h.
The next experiment concerns Pro. mirabilis J-0010. The description is as above. The experiment is classed as cell-based. The following applies: Proteus mirabilis, J0010, 20 h.
The test system of the next experiment is Pro. morganii K-ono. Described as above. Type of experiment: cell-based. To be noted: Morganella morganii; nutrient agar, 37° C., 20 hours.
The next experiment has as its system Pro. vulgaris J-0001. The experiment is described as above. The experiment is classed as cell-based. The following applies: Proteus vulgaris, J0001, 20 h.
The subject of experiment [6] is Sal. enteritidis No. 11(T-okai). The experiment is described as above. The following applies: Salmonella enterica, 20 h. The experiment is classed as cell-based.
Experiment [7] relates to Sta. aureus Rosenbach FDA 209-P JC-1. The experiment is described as above. Type of experiment: cell-based. The following applies: Staphylococcus aureus, FDA209; nutrient agar, 37° C., 20 hours.
The test system of a further experiment is Str. faecalis ATCC 8043. Described as above. The experiment is classed as cell-based. To be noted: Enterococcus faecalis, ATCC8043; nutrient agar, 37° C., 20 hours.
The next experiment relates to E. coli A-0003. Described as above. To be noted: Escherichia coli, A0003; nutrient agar, 37° C., 20 hours. The experiment is classed as cell-based.
Experiment [8] deals with Ps. aeruginosa IID 1210 (IFO 3455). Described as above. To be noted: Pseudomonas aeruginosa, 20 h. The experiment is classed as cell-based.
The subject of another experiment is Pro. vulgaris OX19. The description is as above. Type of experiment: cell-based. To be noted: Proteus vulgaris, nutrient agar, 37° C., 20 hours.
Another experiment has as its system Sal. typhimurium LT-2. The experiment is described as above. To be noted: Salmonella enterica, 20 h. The experiment is classed as cell-based.
A further experiment relates to Ps. aeruginosa NC-5. Described as above. The experiment is classed as cell-based. To be noted: Pseudomonas aeruginosa, NC5, 20 h.
Another experiment concerns Ps. aeruginosa E-2. Described as above. To be noted: Pseudomonas aeruginosa, E2, 20 h. Type of experiment: cell-based.
A further experiment has as its system Serra. marcescens No. 1. The description is as above. The experiment is classed as cell-based. To be noted: Serratia marcescens, nutrient agar, 37° C., 20 hours.
Another experiment relates to B. subtilis ATCC 6633. The experiment is described as above. To be noted: Bacillus subtilis, ATCC6633; nutrient agar, 37° C., 20 hours. The experiment is classed as cell-based.
The test system of the next experiment is Ps. aeruginosa IAM-1007. Described as above. To be noted: Pseudomonas aeruginosa, IAM1007, 20 h. Type of experiment: cell-based.
In another experiment the test system is Sta. aureus N-0089. Described as above. Type of experiment: cell-based. The following applies: Staphylococcus aureus, N0089; nutrient agar, 37° C., 20 hours.
Experiment [9] concerns E. coli JR 66/W 677(A-20683). The description is as above. The following applies: Escherichia coli, 20 h. Type of experiment: cell-based.
In another experiment the test system is Sta. aureus Smith S-424. Described as above. The experiment is classed as cell-based. To be noted: Staphylococcus aureus, SMITHS424; nutrient agar, 37° C., 20 hours.
In a further experiment the test system is Serra. marcescens I-0043. Described as above. Type of experiment: cell-based. The following applies: Serratia marcescens, I0043, 20 h.
Experiment [10] concerns drug-resistant microbial strains including Pseudomonas aeruginosa. The following applies: cited from earlier work.
Another experiment deals with B. anthracis No. 119. Nature of the experiment: microbe, parasite or virus in culture. To be noted: Bacillus anthracis, NO.119, 20 h. Type of experiment: cell-based.
In a further experiment the test system is Ps. aeruginosa M-0002. Nature of the experiment: Antibacterial activity (MIC), serial dilution method. The experiment is classed as cell-based. To be noted: Pseudomonas aeruginosa, M0002; nutrient agar, 37° C., 20 hours; read-out: MIC.

Values after ≈ are worked out from the molar mass of the structure shown.

Regarding `NCC1CCC(N)C(OC2C(N)CC(N)C(OC3OC(CO)C(O)C(N)C3O)C2O)O1` (stereo not drawn) [3',4'-Dideoxykanamycin B], the “activity against kanamycin-resistant microbial strains” value in experiment [1] is reported as “high activity”.

Take `NCCC(O)C(=O)NC1CC(N)C(OC2OC(CN)CCC2N)C(O)C1OC1OC(CO)C(O)C(N)C1O` [1-AHB-DKB, 1-N-(L-4-amino-2-hydroxybutyryl)-3',4'-dideoxykanamycin B]: the MIC is 0.1 µg/mL (≈ 0.181 µM) in [2]; 0.2 µg/mL (≈ 0.362 µM) in the experiment with Sta. epidermidis 109; 3.13 µg/mL (≈ 5.66 µM) against E. coli A-0001; 6.25 µg/mL (≈ 11.3 µM) against Pro. rettgelli J-0026; 3.13 µg/mL (≈ 5.66 µM) in the experiment on E. coli No. 29; 0.78 µg/mL (≈ 1.41 µM) with Sta. aureus No. 26. Also, the MIC came to 0.39 µg/mL (≈ 0.706 µM) in the experiment on Sal. typhi 0-901-W; 6.25 µg/mL (≈ 11.3 µM) against Ps. aeruginosa M-0148; 12.5 µg/mL (≈ 22.6 µM) against Ps. aeruginosa M-0032; 1.56 µg/mL (≈ 2.82 µM) in the experiment on Sal. species D-0006; 0.2 µg/mL (≈ 0.362 µM) against E. coli W 677(A-20684); 3.13 µg/mL (≈ 5.66 µM) in the experiment with Sal. species D-0029. Further, the MIC is 1.56 µg/mL (≈ 2.82 µM) with Sal. species D-0001; 0.78 µg/mL (≈ 1.41 µM) with Kleb. pneumoniae; 0.78 µg/mL (≈ 1.41 µM) in experiment [3]; 0.2 µg/mL (≈ 0.362 µM) in the experiment on Sta. aureus ApO-1; 3.13 µg/mL (≈ 5.66 µM) with Serra. marcescens No. 2; 0.78 µg/mL (≈ 1.41 µM) in [4]. Besides, the MIC in experiment [5] was determined as 1.56 µg/mL (≈ 2.82 µM); against Pro. mirabilis J-0010, 1.56 µg/mL (≈ 2.82 µM); with Pro. morganii K-ono, 3.13 µg/mL (≈ 5.66 µM); in the experiment on Pro. vulgaris J-0001, 1.56 µg/mL (≈ 2.82 µM); in experiment [6] it was 1.56 µg/mL (≈ 2.82 µM); in [7], 0.05 µg/mL (≈ 0.0905 µM). In addition, the MIC was found to be 50 µg/mL (≈ 90.5 µM) in the experiment with Str. faecalis ATCC 8043; 3.13 µg/mL (≈ 5.66 µM) with E. coli A-0003; 12.5 µg/mL (≈ 22.6 µM) in experiment [8]; 3.13 µg/mL (≈ 5.66 µM) in the experiment with Pro. vulgaris OX19; 1.56 µg/mL (≈ 2.82 µM) in the experiment on Sal. typhimurium LT-2; 6.25 µg/mL (≈ 11.3 µM) in the experiment with Ps. aeruginosa NC-5. Also, the MIC stood at 6.25 µg/mL (≈ 11.3 µM) against Ps. aeruginosa E-2; 3.13 µg/mL (≈ 5.66 µM) against Serra. marcescens No. 1; 0.1 µg/mL (≈ 0.181 µM) in the experiment with B. subtilis ATCC 6633; 1.56 µg/mL (≈ 2.82 µM) against Ps. aeruginosa IAM-1007; 0.39 µg/mL (≈ 0.706 µM) with Sta. aureus N-0089; 1.56 µg/mL (≈ 2.82 µM) in [9]. Besides, the MIC in the experiment with Sta. aureus Smith S-424 stood at 0.39 µg/mL (≈ 0.706 µM); with Serra. marcescens I-0043, 1.56 µg/mL (≈ 2.82 µM); with B. anthracis No. 119, 0.1 µg/mL (≈ 0.181 µM); in the experiment on Ps. aeruginosa M-0002, 3.13 µg/mL (≈ 5.66 µM). Also, in experiment [10], the “activity against a wide variety of drug-resistant microbial strains” value is given as “high activity”.

The values are drawn from patent US4268664A, “Process for the preparation of 1-N-isoseryl- or 1-N-(L-4-amino-2-hydroxybutyryl)-3',4'-dideoxykanamycin B and intermediates thereof” (Zaidan Hojin Biseibutsu Kagaku Kenkyu Kai, priority 1978, dated 1981).
